Among the data in PubChem BioAssay (NCI) are TGI values, retold here.

Some test systems named below: 786-0 renal; HCT-116 colon; HS 578T breast; HT29 colon; M14 melanoma; MDA-MB-231 breast; NCI-H23 lung; RPMI-8226 leukemia; SF-295 CNS; SK-MEL-2 melanoma; SNB-19 CNS; T-47D breast; UACC-257 melanoma; UACC-62 melanoma; SF-539 CNS.
Assay in all cases: DTP human tumour cell line panel, 48 h

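Method: 48-hour compound exposure of cells in 96-well plates, five concentrations, linear interpolation of endpoints. Definition used: TGI = concentration required for complete inhibition of growth.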 Where a SMILES comes first, the peptide text is derived from it. The star is where a group is joined. Cbz = O=C(OCc1ccccc1)*; Boc = CC(C)(C)OC(=O)*; OBn = c1ccc(CO*)cc1

In general, TGI refers to the concentration giving total growth inhibition. Lower therefore signals more potent growth arrest. Regarding `CC1(C)O[C@@H]([C@@H](O)[C@H](O)C2SCCCS2)[C@@H](CO)O1`, the TGI in the experiment with 786-0 renal, with HCT-116 colon, with HS 578T breast, in the experiment on HT29 colon, in the experiment on M14 melanoma and in the experiment on MDA-MB-231 breast was over 100 µM throughout. Further, the concentration for total growth inhibition (TGI) in the experiment on NCI-H23 lung, in the experiment on RPMI-8226 leukemia, with SF-295 CNS, in the experiment on SK-MEL-2 melanoma, in the experiment on SNB-19 CNS and in the experiment on T-47D breast was over 100 µM throughout. For the same molecule, the TGI in the experiment on UACC-257 melanoma and in the experiment on UACC-62 melanoma was over 100 µM in each case.

As to `CC(C)(C)OC(=O)N1CCC[C@H]1CSC[C@@H]1CCCN1C(=O)OC(C)(C)C`, the TGI was over 100 µM with 786-0 renal; 78.5 µM with HCT-116 colon; 79.3 µM with HS 578T breast; 34.9 µM with HT29 colon; 38.2 µM with M14 melanoma; over 100 µM in the experiment on MDA-MB-231 breast. Also, the TGI in the experiment with NCI-H23 lung is 68.2 µM; in the experiment with SF-295 CNS, over 100 µM; in the experiment on SK-MEL-2 melanoma, 40.6 µM; in the experiment with SNB-19 CNS, over 100 µM; with T-47D breast it was 80.7 µM; in the experiment on UACC-257 melanoma, 90.8 µM. The molecule also came in with a TGI in the experiment on UACC-62 melanoma of 57.2 µM.

Consider `Cc1oc2nc(N(C)C)n3c(C)nnc3c2c1C`, for which the TGI in the experiment with 786-0 renal, with HCT-116 colon, in the experiment on HS 578T breast, in the experiment on HT29 colon, in the experiment with M14 melanoma and in the experiment with MDA-MB-231 breast was over 100 µM throughout. Further, the TGI in the experiment on NCI-H23 lung, in the experiment with RPMI-8226 leukemia, in the experiment on SF-295 CNS, in the experiment on SF-539 CNS, in the experiment on SNB-19 CNS and in the experiment on T-47D breast was over 100 µM in each case. The total growth inhibition concentration (TGI) with UACC-257 melanoma and with UACC-62 melanoma was over 100 µM each time.

For `Brc1ccc(C2(N3CCCCC3)CCCCC2)s1`, the TGI in the experiment on 786-0 renal was over 100 µM; in the experiment with HCT-116 colon it was over 100 µM; with HS 578T breast, over 100 µM; with HT29 colon, over 100 µM; with M14 melanoma, 71.4 µM; in the experiment with MDA-MB-231 breast, over 100 µM. The TGI is over 100 µM in the experiment with NCI-H23 lung; 39.5 µM in the experiment on RPMI-8226 leukemia; over 100 µM with SF-295 CNS; 37 µM in the experiment on SK-MEL-2 melanoma; over 100 µM in the experiment on SNB-19 CNS; 49.5 µM with T-47D breast. The results for the TGI in the experiment on UACC-257 melanoma and in the experiment on UACC-62 melanoma were 94.6 µM and over 100 µM, respectively.

For `CCC/C(Cl)=N/OC(=O)Nc1cccc(F)c1`, the TGI with 786-0 renal was 3.2 µM; in the experiment on HCT-116 colon it was 18.6 µM; in the experiment with HS 578T breast, over 63.1 µM; in the experiment with HT29 colon, 9.35 µM; in the experiment on M14 melanoma, 14.7 µM; in the experiment on MDA-MB-231 breast, 27.7 µM. In addition, the TGI in the experiment on NCI-H23 lung amounted to 38.2 µM; in the experiment with RPMI-8226 leukemia it was 8.08 µM; in the experiment with SF-295 CNS, 32.5 µM; with SK-MEL-2 melanoma it was 33.4 µM; with SNB-19 CNS, 32.3 µM; in the experiment on T-47D breast, 6.34 µM. The TGI stood at 28 µM in the experiment with UACC-257 melanoma and 32.6 µM in the experiment on UACC-62 melanoma.

On to `C[C@H]1ON2CCC[C@@H]2[C@@H]1C(=O)N1C2CC3CCC2(CS1(=O)=O)C3(C)C` (stereo not given in full), for which the TGI in the experiment with 786-0 renal, in the experiment on HCT-116 colon, in the experiment on HS 578T breast, in the experiment with HT29 colon, in the experiment on M14 melanoma and in the experiment on MDA-MB-231 breast was over 100 µM in each case. For the same molecule, the TGI in the experiment with NCI-H23 lung, with SF-295 CNS, in the experiment on SF-539 CNS, with SK-MEL-2 melanoma, in the experiment with SNB-19 CNS and in the experiment with T-47D breast was over 100 µM each time. Further, the TGI in the experiment with UACC-257 melanoma and in the experiment on UACC-62 melanoma was over 100 µM in each case.

Turning to `O=C1c2cc([N+](=O)[O-])cnc2S(=O)(=O)N1c1ccc(Oc2ccccc2)cc1`, the TGI in the experiment on 786-0 renal, with HCT-116 colon, in the experiment on HS 578T breast, in the experiment with M14 melanoma, in the experiment on MDA-MB-231 breast and in the experiment with NCI-H23 lung was over 100 µM each time. Also, the TGI in the experiment with RPMI-8226 leukemia, in the experiment with SF-295 CNS, with SK-MEL-2 melanoma, in the experiment on SNB-19 CNS, in the experiment with T-47D breast and in the experiment with UACC-62 melanoma was over 100 µM in each case.

Turning to `O=c1[nH]nc(Cc2ccc(Cl)cc2)n1Nc1ccccc1`, the total growth inhibition concentration (TGI) in the experiment on 786-0 renal, with HCT-116 colon, in the experiment on HS 578T breast, in the experiment with HT29 colon, with M14 melanoma and with MDA-MB-231 breast was over 100 µM in each case. The TGI in the experiment on NCI-H23 lung, in the experiment with SF-295 CNS, in the experiment with SF-539 CNS, in the experiment with SK-MEL-2 melanoma, in the experiment on SNB-19 CNS and in the experiment on T-47D breast was over 100 µM each time. Besides, the TGI in the experiment on UACC-257 melanoma and in the experiment on UACC-62 melanoma was over 100 µM throughout.

For the molecule `CC1C2CC(CC2=O)C1(C)C` (stereo not given), the TGI in the experiment with 786-0 renal, in the experiment on HCT-116 colon, in the experiment with HS 578T breast, in the experiment with HT29 colon, in the experiment on M14 melanoma and with MDA-MB-231 breast was over 100 µM each time. Moreover, the TGI with NCI-H23 lung, in the experiment on SF-295 CNS, in the experiment with SF-539 CNS, with SNB-19 CNS, with T-47D breast and with UACC-257 melanoma was over 100 µM in each case. The molecule further came in with a TGI with UACC-62 melanoma of over 100 µM.

Consider `COc1ccc2[nH]c3c(c2c1)CCc1ccccc1-3`, for which the concentration for total growth inhibition (TGI) is over 100 µM in the experiment with 786-0 renal; over 100 µM in the experiment with HCT-116 colon; 37.4 µM with HS 578T breast; over 100 µM in the experiment with HT29 colon; over 100 µM with M14 melanoma; 76.1 µM in the experiment on MDA-MB-231 breast. Further, the TGI with NCI-H23 lung is over 100 µM; with SF-295 CNS, over 100 µM; in the experiment with SF-539 CNS, 32.1 µM; in the experiment on SK-MEL-2 melanoma, over 100 µM; with SNB-19 CNS it was over 100 µM; in the experiment with T-47D breast, over 100 µM. The TGI in the experiment on UACC-257 melanoma and in the experiment with UACC-62 melanoma was over 100 µM throughout.

Consider `c1ccc(NC2(c3nnnn3C3CCCCC3)CCNCC2)cc1`, for which the TGI is 28.6 µM with 786-0 renal; 28.5 µM in the experiment on HCT-116 colon; 32.2 µM in the experiment on HS 578T breast; 35.8 µM with HT29 colon; 35.8 µM in the experiment with M14 melanoma; over 100 µM with MDA-MB-231 breast. The TGI in the experiment on NCI-H23 lung stood at 52.4 µM; with RPMI-8226 leukemia, 59.6 µM; with SF-295 CNS, 34.6 µM; in the experiment with SF-539 CNS, 30 µM; in the experiment with SNB-19 CNS, 42.5 µM; in the experiment on T-47D breast, 52.1 µM. The total growth inhibition concentration (TGI) in the experiment on UACC-257 melanoma was 30.6 µM; in the experiment with UACC-62 melanoma it was 38.5 µM.

For the molecule `Cc1cc2c(cc1-c1cc3c(cc1C)C(C(C)C)=C(O)C(=O)/C3=C\Nc1cccc3c(N)cccc13)/C(=C/Nc1cccc3c(N)cccc13)C(=O)C(O)=C2C(C)C`, the TGI with 786-0 renal, in the experiment with HCT-116 colon, in the experiment on HS 578T breast, in the experiment with HT29 colon, with M14 melanoma and in the experiment on MDA-MB-231 breast was over 100 µM each time. In addition, the TGI in the experiment with NCI-H23 lung, in the experiment with RPMI-8226 leukemia, with SF-295 CNS, in the experiment on SK-MEL-2 melanoma, in the experiment with SNB-19 CNS and in the experiment with T-47D breast was over 100 µM each time. Moreover, the concentration for total growth inhibition (TGI) in the experiment on UACC-257 melanoma and in the experiment with UACC-62 melanoma was over 100 µM throughout.

Consider `O=C1C(c2c(O)n(-c3ccccc3)c3ccccc23)=Nc2ccccc21`, for which the TGI is 36.7 µM with 786-0 renal; over 100 µM with HCT-116 colon; over 100 µM with HS 578T breast; over 100 µM with HT29 colon; over 100 µM with M14 melanoma; 81.5 µM with MDA-MB-231 breast. The TGI is over 100 µM with NCI-H23 lung; over 100 µM with RPMI-8226 leukemia; over 100 µM in the experiment on SF-295 CNS; 97.3 µM in the experiment with SK-MEL-2 melanoma; over 100 µM with SNB-19 CNS; 71.9 µM with T-47D breast. Also, the TGI in the experiment on UACC-257 melanoma and with UACC-62 melanoma was over 100 µM each time.

Take `CC(=O)Nc1ccccc1S(=O)(=O)c1c(-c2c(C)c(Cl)c(C)c(Cl)c2C)noc1C`: the TGI with 786-0 renal is 40.6 µM; with HCT-116 colon, over 100 µM; in the experiment with HS 578T breast it was 73.7 µM; in the experiment with HT29 colon, over 100 µM; with M14 melanoma, over 100 µM; with MDA-MB-231 breast, 88 µM. Besides, the TGI in the experiment with NCI-H23 lung was over 100 µM; with RPMI-8226 leukemia, over 100 µM; with SF-295 CNS, over 100 µM; with SK-MEL-2 melanoma, over 100 µM; in the experiment with SNB-19 CNS, 64.5 µM; in the experiment on T-47D breast, over 100 µM. For the same molecule, the TGI with UACC-257 melanoma and in the experiment with UACC-62 melanoma was over 100 µM each time.

Take `COC(=O)C(CCCCNC(=O)OCc1ccccc1)NC(=O)C(CCC(=O)OCc1ccccc1)NC(=O)OC(C)(C)C` (stereo not given) (Boc-Glu(OBn)-Lys(Cbz)-OMe; configuration not given here): the TGI in the experiment with 786-0 renal, in the experiment on HCT-116 colon, with HS 578T breast, with HT29 colon, with M14 melanoma and with MDA-MB-231 breast was over 100 µM throughout. Also, the TGI with NCI-H23 lung, with RPMI-8226 leukemia, in the experiment with SF-295 CNS, in the experiment with SF-539 CNS, in the experiment with SNB-19 CNS and in the experiment on T-47D breast was over 100 µM in each case. This molecule also yielded a TGI in the experiment on UACC-62 melanoma of over 100 µM.
